# Assay results as given in PubChem BioAssay (NCI).
#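 Exposure lasted 48 hours, with cells grown in 96-well plates and compounds tested at five concentrations. At the TGI there is no net growth.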
# Assays:
# Experiment in all cases: NCI anticancer screen, dose series, 48 h
# EKVX NSCLC = test system: EKVX NSCLC
# M14 melanoma = test system: M14 melanoma
# PC-3 prostate = test system: PC-3 prostate
# SK-MEL-28 melanoma = test system: SK-MEL-28 melanoma
# T-47D breast = test system: T-47D breast
# TK-10 renal = test system: TK-10 renal
# UACC-62 melanoma = test system: UACC-62 melanoma
# SW-620 colon = test system: SW-620 colon
Compound,TGI (EKVX NSCLC),TGI (M14 melanoma),TGI (PC-3 prostate),TGI (SK-MEL-28 melanoma),TGI (T-47D breast),TGI (TK-10 renal),TGI (UACC-62 melanoma),TGI (SW-620 colon)
c1cc2c3c(c1)[C@@H]1O[C@@H]1c1cccc(c1-3)[C@@H]1O[C@H]21,34.4 µM,34.1 µM,51.9 µM,31.3 µM,62.8 µM,> 100 µM,33.3 µM,
S=c1oc(CCCCCCCCc2nn(CNc3ccc(Cl)cc3)c(=S)o2)nn1CNc1ccc(Cl)cc1,> 100 µM,> 100 µM,> 100 µM,> 100 µM,,> 100 µM,> 100 µM,> 100 µM
COC(CC1(CCNc2ccccc2)C(=O)N(COCC[Si](C)(C)C)c2ccccc21)OC (stereo not drawn),31.7 µM,6.92 µM,27.8 µM,30.1 µM,56.3 µM,28.9 µM,29.8 µM,> 55.3 µM
COc1ccc(OC)c(-c2cn3c(n2)sc2ccccc23)c1,> 100 µM,,> 100 µM,,> 100 µM,> 100 µM,> 100 µM,> 100 µM
C/C(=C\COP(=O)(O)OP(=O)(O)O)CC/C=C(\C)CNc1ccccc1,> 50 µM,> 50 µM,> 50 µM,> 50 µM,> 50 µM,> 50 µM,> 50 µM,> 50 µM
COC(C/C=C\C=C\CC/C=C/CC(C)/C=C/C(=C\C(=O)O)CC(=O)O)/C(C)=C\C=C(/C)C(=O)O (stereo not drawn),> 100 µM,> 100 µM,> 100 µM,> 100 µM,,> 100 µM,> 100 µM,> 100 µM
CCCCCCCCCCC[N+]1(Cc2ccccc2)CC2CCN(Cc3ccccc3)CC2C1 (stereo not drawn),1.37 µM,1.48 µM,1.18 µM,1.95 µM,1.37 µM,2.57 µM,,1.58 µM
CCn1c(O)c(C(=O)NC(C)c2ccc([N+](=O)[O-])cc2)c(=O)n(CC)c1=S (stereo not drawn),12.7 µM,6.04 µM,10.2 µM,17.6 µM,14.2 µM,17 µM,5.8 µM,10.5 µM
Cc1cc2nc3c(N)nn(CCN(C)C)c3nc2cc1C,> 100 µM,> 100 µM,> 100 µM,> 100 µM,> 100 µM,> 100 µM,> 100 µM,> 100 µM
CC(=O)c1cc(S(=O)(=O)c2ccc(O)c(C(C)=O)c2)ccc1O,> 100 µM,> 100 µM,> 100 µM,> 100 µM,> 100 µM,> 100 µM,> 100 µM,> 100 µM
O=C(O)c1cc(Nc2c(O)c3c(c(O)c2Cl)C(=O)C=CC3=O)ccc1O,> 10 µM,> 10 µM,> 10 µM,> 10 µM,> 10 µM,> 10 µM,> 10 µM,> 10 µM
CC(C)CCCC(C)[C@H]1CC[C@H]2NCCCC[C@]12C (stereo partly drawn),5.23 µM,4.29 µM,10.4 µM,5.57 µM,8.93 µM,11.9 µM,3.91 µM,9.84 µM
Cn1c(=O)[nH]n(-c2ccc3ccccc3c2)c1=O,> 100 µM,> 100 µM,> 100 µM,> 100 µM,> 100 µM,> 100 µM,> 100 µM,> 100 µM
